Data from patent US20210069199A1, “METHODS OF TREATING TRANSPLANT REJECTION” (priority 2015, published 2021).

Key:
[1] = test system: GVHD in recipient mice; test: murine model of MHC-disparate allogeneic hematopoietic cell transplantation (GVHD); format: in vivo; details: 100 mg/kg twice a day by oral gavage for 4 weeks beginning on the day of MHC-disparate allo-HCT
[2] = test system: human skin graft rejection by allogeneic human PBMC; test: human skin/NSG mouse xenograft model of solid organ graft rejection; format: in vivo
Description: The inventors then evaluated whether JAK2 inhibition could prevent solid organ graft rejection, using a human skin/NSG mouse xenograft model. A 1×1 cm split-thickness human skin graft was transplanted onto the animal dorsally, followed by intraperitoneal injection of 5×10^6 allogeneic peripheral blood mononuclear cells (PBMC) 30 days after surgery.

[3] = test system: human T-cells; test: allogeneic mixed leukocyte reaction, T-cell proliferation; format: cell-based; details: 2.5 μM, after 5 days of culture, DC:T-cell ratio 1:30; control 100%; P<0.0001
Description: (§1) This offers a platform to reduce Th17 development, while promoting Treg populations.

[4] = test system: STAT3 activity by IL-6; test: STAT3 activity by IL-6 in human CD4+ T-cells; format: cell-based; details: 2.5 μM
Description: as §1

[5] = test system: IL-2 induced STATS phosphorylation; test: IL-2 induced STAT5 phosphorylation in human CD4+ T-cells; format: cell-based; details: 2.5 μM
Description: as §1

[6] = test system: iTregs; test: suppressive potency of iTregs generated with allogeneic DCs in the presence of drug; format: cell-based, human; details: iTregs generated with allogeneic DCs for 5 days with drug, then cultured with self T-cell responders and fresh DCs without drug
Description: as §1

[7] = target: T1, JAK3 (Homo sapiens, UniProt P52333); details: cited from earlier work
T1 sequence (P52333 1-1124): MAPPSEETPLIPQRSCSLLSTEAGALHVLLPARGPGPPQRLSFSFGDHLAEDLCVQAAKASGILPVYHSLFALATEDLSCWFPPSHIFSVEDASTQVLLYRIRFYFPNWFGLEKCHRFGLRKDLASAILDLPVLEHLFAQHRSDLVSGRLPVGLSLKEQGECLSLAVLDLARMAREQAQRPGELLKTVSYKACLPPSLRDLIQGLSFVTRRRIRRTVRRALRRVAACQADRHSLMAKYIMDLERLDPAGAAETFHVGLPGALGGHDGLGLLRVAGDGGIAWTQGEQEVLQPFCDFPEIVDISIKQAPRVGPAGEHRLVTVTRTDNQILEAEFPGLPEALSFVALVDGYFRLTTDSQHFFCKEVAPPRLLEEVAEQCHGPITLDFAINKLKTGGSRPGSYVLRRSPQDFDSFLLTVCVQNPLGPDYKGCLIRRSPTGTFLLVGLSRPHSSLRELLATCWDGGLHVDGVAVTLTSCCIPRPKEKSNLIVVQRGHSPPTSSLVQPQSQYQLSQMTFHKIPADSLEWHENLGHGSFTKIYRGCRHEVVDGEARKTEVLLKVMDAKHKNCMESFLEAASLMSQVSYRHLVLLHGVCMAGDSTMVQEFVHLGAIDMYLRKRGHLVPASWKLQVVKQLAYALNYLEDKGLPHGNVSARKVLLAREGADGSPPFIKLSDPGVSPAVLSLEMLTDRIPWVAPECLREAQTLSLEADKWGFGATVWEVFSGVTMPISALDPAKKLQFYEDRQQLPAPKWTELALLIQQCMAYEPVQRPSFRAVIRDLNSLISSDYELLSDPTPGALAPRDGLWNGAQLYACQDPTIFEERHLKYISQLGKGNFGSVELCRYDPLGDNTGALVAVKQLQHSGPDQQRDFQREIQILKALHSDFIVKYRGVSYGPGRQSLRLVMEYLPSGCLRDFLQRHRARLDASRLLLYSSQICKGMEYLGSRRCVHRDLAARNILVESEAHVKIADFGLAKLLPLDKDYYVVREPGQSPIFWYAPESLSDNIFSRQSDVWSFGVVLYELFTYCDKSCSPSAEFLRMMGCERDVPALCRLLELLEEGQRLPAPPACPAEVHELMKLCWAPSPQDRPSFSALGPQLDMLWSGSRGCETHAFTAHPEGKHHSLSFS

[8] = target: CSF1R (Homo sapiens, UniProt P07333); details: cited from earlier work
Sequence of CSF1R (P07333 20-972, species assumed): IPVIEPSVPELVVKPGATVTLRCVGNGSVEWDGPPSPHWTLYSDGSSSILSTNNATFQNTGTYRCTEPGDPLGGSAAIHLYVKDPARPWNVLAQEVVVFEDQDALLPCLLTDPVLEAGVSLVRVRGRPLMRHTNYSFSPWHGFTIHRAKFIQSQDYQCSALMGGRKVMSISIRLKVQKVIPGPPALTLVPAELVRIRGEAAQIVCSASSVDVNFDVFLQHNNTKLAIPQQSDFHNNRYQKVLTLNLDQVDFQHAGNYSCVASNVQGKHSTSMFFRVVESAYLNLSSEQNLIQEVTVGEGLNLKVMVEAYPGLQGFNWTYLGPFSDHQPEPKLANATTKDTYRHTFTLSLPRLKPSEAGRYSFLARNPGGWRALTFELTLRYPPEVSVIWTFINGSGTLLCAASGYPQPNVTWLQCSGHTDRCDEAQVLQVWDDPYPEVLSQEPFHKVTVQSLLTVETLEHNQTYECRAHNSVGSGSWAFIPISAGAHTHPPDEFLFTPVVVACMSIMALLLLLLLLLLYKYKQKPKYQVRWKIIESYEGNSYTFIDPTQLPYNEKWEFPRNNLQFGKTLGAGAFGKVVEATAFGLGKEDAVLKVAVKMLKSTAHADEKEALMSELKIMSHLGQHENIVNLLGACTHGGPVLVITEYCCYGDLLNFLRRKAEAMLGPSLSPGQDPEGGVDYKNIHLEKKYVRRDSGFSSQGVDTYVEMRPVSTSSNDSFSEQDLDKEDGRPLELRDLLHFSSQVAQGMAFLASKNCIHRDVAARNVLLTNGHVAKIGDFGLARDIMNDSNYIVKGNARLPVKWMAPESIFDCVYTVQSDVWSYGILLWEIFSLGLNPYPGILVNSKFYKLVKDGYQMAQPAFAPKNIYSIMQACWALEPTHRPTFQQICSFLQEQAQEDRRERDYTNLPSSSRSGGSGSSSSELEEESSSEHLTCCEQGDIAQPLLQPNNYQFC

[9] = target: IRAK1 (Homo sapiens, UniProt P51617); details: cited from earlier work
Sequence of IRAK1 (P51617 whole entry, species assumed): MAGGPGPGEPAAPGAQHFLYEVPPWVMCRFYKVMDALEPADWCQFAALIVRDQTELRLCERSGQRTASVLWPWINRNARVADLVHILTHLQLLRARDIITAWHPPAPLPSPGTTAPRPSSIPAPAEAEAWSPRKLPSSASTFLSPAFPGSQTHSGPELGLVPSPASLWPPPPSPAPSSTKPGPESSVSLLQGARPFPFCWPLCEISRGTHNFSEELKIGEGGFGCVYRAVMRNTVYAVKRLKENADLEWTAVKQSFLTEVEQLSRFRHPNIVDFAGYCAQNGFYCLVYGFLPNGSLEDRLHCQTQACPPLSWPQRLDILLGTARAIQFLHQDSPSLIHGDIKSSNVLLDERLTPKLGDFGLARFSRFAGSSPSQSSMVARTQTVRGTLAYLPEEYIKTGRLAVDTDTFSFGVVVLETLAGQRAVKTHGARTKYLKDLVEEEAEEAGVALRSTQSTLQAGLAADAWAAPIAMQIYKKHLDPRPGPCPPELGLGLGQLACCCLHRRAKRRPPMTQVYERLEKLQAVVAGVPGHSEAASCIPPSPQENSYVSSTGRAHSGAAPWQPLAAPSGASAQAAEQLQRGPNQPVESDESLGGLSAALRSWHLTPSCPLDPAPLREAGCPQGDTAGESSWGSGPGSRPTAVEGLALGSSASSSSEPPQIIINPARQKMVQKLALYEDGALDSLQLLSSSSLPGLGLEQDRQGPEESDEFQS

[10] = test system: myelofibrosis patients; details: unlike JAK1/JAK2 inhibitors; cited from earlier work

C1=C/COCc2cc(ccc2OCCN2CCCC2)Nc2nccc(n2)-c2cccc(c2)COC/1 [pacritinib, 11-(2-Pyrrolidinl-yl-ethoxy)-14,19-dioxa-5,7,26-triazatetracyclo[19.3.1.1^2,6.1^8,12] heptacosa-1(25),2(26),3,5,8,10,12(27),16,21,23-decaene]
GVHD in recipient mice [1]: significantly reducing GVHD
Day 60 survival (graft) ([2]; 100 mg/kg twice a day oral gavage for 15 days from PBMC injection, vehicle 0%): 33.3%
Median graft survival ([2]; 100 mg/kg twice a day oral gavage for 15 days from PBMC injection, vehicle 32.5 days, P=0.0011): 51 days
lymphocytic infiltration of skin graft (H&E, CD3 IHC) ([2]; skin grafts at day +21, before onset of graft rejection): reduces lymphocytic infiltration of the tissue
Mean proliferation (T-cell) [3]: 23.7%
STAT3 activity by IL-6 [4]: eliminated STAT3 activity by IL-6
IL-2 induced STATS phosphorylation [5]: permitting IL-2 induced STATS phosphorylation
suppressive potency of treated iTregs versus DMSO-treated iTregs [6]: similar
suppressive activity toward JAK3 [7]: has suppressive activity toward JAK3
suppressive activity toward CSF1R [8]: has suppressive activity toward JAK3, CSF1R
suppressive activity toward IRAK1 [9]: has suppressive activity toward JAK3, CSF1R, and IRAK1
myelosuppression [10]: does not induce myelosuppression
risk for opportunistic infections [10]: does not induce myelosuppression or increase risk for opportunistic infections
